Columns and labels:
Format in all cases: in vivo
[1] = test system: Amaranthus retroflexus (AMARE); assay: C. Herbicidal pre-emergence efficacy, AMARE; settings: scored after about 3 weeks
Outline: (§1)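 Pre-emergence test: formulated compounds sprayed as aqueous suspension or emulsion with 0.5% additive at 600 l/ha onto soil covering sown seeds, at rates corresponding to 320 g/ha or less. After about 3 weeks in greenhouse, efficacy scored visually as percent versus untreated controls (100% = plants dead).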

[2] = test system: Amaranthus retroflexus (AMARE); assay: B. Herbicidal post-emergence efficacy, AMARE
Outline: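 Post-emergence greenhouse test: one-leaf-stage plants, compound (WP/EC, +0.5% additive, 600 L/ha water, ≤1280 g/ha) applied to green parts; % efficacy scored visually vs untreated after ~3 wk; 100% = plants died.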

Setaria viridis (SETVI) = assay: A. Herbicidal pre-emergence efficacy, SETVI
Outline: (§2)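 Applied before emergence onto covering soil at rates of 1280 g/ha or less, using 600 L/ha spray water with 0.5% additive. Scoring: visual % efficacy after ~3 weeks, greenhouse.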

Lolium rigidum (LOLRI) = assay: A. Herbicidal pre-emergence efficacy, LOLRI
Outline: as §2

Viola tricolor (VIOTR) = assay: E. Herbicidal post-emergence efficacy, VIOTR
Outline: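 Visual scoring against untreated plants was done roughly 3 weeks after spraying (0% = no effect, 100% = plants dead). Spray application at 320 g/ha or lower, 600 l/ha water with 0.5% additive, was made onto green parts of one-leaf-stage greenhouse plants grown 2-3 weeks in sandy loam.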

[3] = test system: Amaranthus retroflexus (AMARE); assay: A. Herbicidal pre-emergence efficacy, AMARE
Outline: as §2

[4] = test system: Abutilon theophrasti (ABUTH); assay: A. Herbicidal pre-emergence efficacy, ABUTH; settings: scored visually after about 3 weeks vs untreated controls
Outline: as §2

[5] = test system: Alopecurus myosuroides (ALOMY); assay: C. Herbicidal pre-emergence efficacy, ALOMY; settings: scored after about 3 weeks
Outline: as §1

Structure (SMILES) | Pre-emergence efficacy against AMARE ([1]; 80 g/ha) | Pre-emergence efficacy against AMARE ([1]; 320 g/ha) | Post-emergence efficacy against AMARE ([2]; 1280 g/ha) | Pre-emergence efficacy against SETVI (Setaria viridis (SETVI); dosage 80 g/ha) | Pre-emergence efficacy against SETVI (Setaria viridis (SETVI); dosage 320 g/ha) | Pre-emergence efficacy against SETVI (Setaria viridis (SETVI); dosage 1280 g/ha) | Pre-emergence efficacy against LOLRI (Lolium rigidum (LOLRI); dosage 1280 g/ha) | Post-emergence efficacy against VIOTR in % (Viola tricolor (VIOTR); application rate 80 g/ha) | Post-emergence efficacy against VIOTR in % (Viola tricolor (VIOTR); application rate 320 g/ha) | Pre-emergence efficacy against AMARE in % ([3]; 80 g/ha) | Pre-emergence efficacy against AMARE in % ([3]; 320 g/ha) | Pre-emergence efficacy against AMARE in % ([3]; 1280 g/ha) | Pre-emergence efficacy against ABUTH ([4]; 80 g/ha) | Pre-emergence efficacy against ABUTH ([4]; 320 g/ha) | Pre-emergence efficacy against ABUTH ([4]; 1280 g/ha) | Pre-emergence efficacy against ALOMY ([5]; 320 g/ha) | Post-emergence efficacy against AMARE ([2]; 320 g/ha) | Pre-emergence efficacy against LOLRI (Lolium rigidum (LOLRI); dosage 320 g/ha) | Post-emergence efficacy against AMARE ([2]; 80 g/ha) | Pre-emergence efficacy against ALOMY ([5]; 80 g/ha)
O=S(=O)(CCC(F)(F)F)Oc1c(Cl)cccc1Oc1ncc(Cl)cn1 [Example I-38] | 100% | 100% | 90% | 90% | 100% | 100% | 100% | 100% | 100% | 100% | 100% | 100% | 100% | 100% | 100% | 100% | – | – | – | –
O=S(=O)(CCCC(F)(F)F)Oc1c(Cl)cccc1Oc1ncc(Cl)cn1 [Example I-39] | 100% | 100% | 90% | 90% | 100% | 100% | 100% | 100% | 100% | 100% | 100% | 100% | 90% | 100% | 100% | 100% | 90% | 100% | – | –
O=S(=O)(CCC(F)(F)F)Oc1c(F)cccc1Oc1ncc(Br)cn1 [Example I-40] | 100% | 100% | 90% | 100% | 100% | 100% | 100% | 100% | 100% | 100% | 100% | 100% | 100% | 100% | 100% | 100% | 90% | 100% | – | –
O=S(=O)(CCCC(F)(F)F)Oc1c(F)cccc1Oc1ncc(Br)cn1 [Example I-41] | 100% | 100% | 90% | 100% | 100% | 100% | 100% | 100% | 100% | 100% | 100% | 100% | – | 100% | 100% | 100% | 90% | 100% | – | –
O=S(=O)(CCC(F)(F)F)Oc1c(F)cccc1Oc1ncc(Cl)cn1 [Example I-48] | 100% | 100% | 90% | 90% | 90% | 100% | 90% | 100% | 100% | 90% | 90% | 100% | 90% | 100% | 100% | 100% | 90% | 90% | 90% | 100%
O=S(=O)(CCCC(F)(F)F)Oc1c(F)cccc1Oc1ncc(Cl)cn1 [Example I-49] | 100% | 100% | 100% | 90% | 100% | 100% | 90% | 100% | 100% | 90% | 100% | 100% | 100% | 100% | 100% | 100% | 90% | 90% | 90% | 100%
C=CCCS(=O)(=O)Oc1c(F)cccc1Oc1ncc(Cl)cn1 [Example I-50] | 100% | 100% | 100% | 90% | 90% | 100% | 90% | 90% | 100% | 90% | 90% | 100% | 90% | 100% | 100% | 90% | 90% | 90% | 90% | –
COCCS(=O)(=O)Oc1c(F)cccc1Oc1ncc(Cl)cn1 [Example I-52] | 100% | 100% | 90% | – | 100% | 100% | 100% | – | 80% | 90% | 100% | 100% | – | 100% | 100% | 100% | 90% | – | – | –
O=S(=O)(CC1CC(F)(F)C1)Oc1c(F)cccc1Oc1ncc(Cl)cn1 [Example I-53] | 100% | 100% | 90% | 100% | 100% | 100% | 100% | 100% | 100% | 100% | 100% | 100% | 100% | 100% | 100% | 100% | 90% | 90% | 90% | 90%
O=S(=O)(CCCC(F)F)Oc1c(F)cccc1Oc1ncc(Cl)cn1 [Example I-56] | 100% | 100% | 90% | 100% | 100% | 100% | 100% | 100% | 100% | 100% | 100% | 100% | 100% | 100% | 100% | 100% | 90% | 100% | 90% | 100%
O=S(=O)(CCCC(F)(F)C(F)(F)F)Oc1c(F)cccc1Oc1ncc(Cl)cn1 [Example I-68] | 100% | 100% | 100% | 90% | 100% | 100% | 100% | 100% | 100% | – | 100% | 100% | – | – | 100% | 90% | 100% | – | 100% | –
